The results in this text go back to US20230406850A1, “CRYSTALLINE FORM OF HETEROCYCLIC COMPOUND, PREPARATION METHOD THEREFOR AND APPLICATION THEREOF” (WUHAN LL SCIENCE AND TECHNOLOGY DEVELOPMENT CO., LTD., priority 2020, published 2023).

Data set [1] can be described thus: Solid form change on dehydration, drying or ambient humidity (XRPD). Type of data set: physicochemical. An excerpt: Combined with DSC and TGA pattern, it can be seen that the product is hydrate with about 0.34 water molecules.
Data set [2] relates to Dunkin Hartley guinea pigs, ATP-citric acid induced cough. Nature of the data set: ATP-citric acid cough model. Type of data set: in vivo, guinea pig. As for the experimental part: Male Dunkin Hartley guinea pigs (300-400 g) were placed in a whole-body volume scanning box for 3 to 5 minutes, and then subjected to ATP atomization for 2 minutes, with an interval of 3 minutes, followed by citric acid atomization for 5 minutes, and all atomization rates were about 300 μL/min. From citrate acid atomization, cough times and cough latency of animals within 10 min were recorded. During the 10-minute observation period, manual counting of coughs was required, and the number of coughs was judged according to the guinea pig's coughing posture, such as abdominal twitching, mouth opening, head down hooking, etc., as well as the sound of coughing, the number of coughs in the first 10 minutes were recorded, and the cough incubation period of guinea pigs was also recorded.
Animals were divided into vehicle group, dextromethorphan (63 mg/kg) positive group, AF-219 (30 mg/kg) positive group and compound 172 (3, 10, 30 mg/kg) administration group of Embodiment. All compounds were administered orally, except dextromethorphan, which was administered 40 minutes before ATP-citric acid exposure, and the rest compounds were […].

Setting [3] is: 63 mg/kg oral, 40 minutes before ATP-citric acid exposure.

Each structure is given as a SMILES string.

In the case of `COC(=O)N1CCO[C@@H](Cc2c(-c3c(F)cc(S(N)(=O)=O)cc3F)nc3cc(Cl)ccn23)C1` [Crystalline form IV, methyl (S)-2-((7-chloro-2-(2,6-difluoro-4-sulfamoylphenyl)imidazo[1,2-a]pyridin-3-yl)methyl)morpholine-4-carboxylate], the “crystalline form after dehydration” value in data set [1] (heating to dehydration, then ambient humidity) is “becomes crystalline form I again”.

Regarding `COC(=O)N1CCO[C@@H](Cc2c(-c3c(F)cc(S(N)(=O)=O)cc3F)nc3cc(Cl)ccn23)C1` [Crystalline form VI, methyl (S)-2-((7-chloro-2-(2,6-difluoro-4-sulfamoylphenyl)imidazo[1,2-a]pyridin-3-yl)methyl)morpholine-4-carboxylate], in data set [1] (35% RH, a few minutes), the “crystalline form after being placed under ambient humidity” value is reported as “transforms into crystalline form I”. Regarding `COC(=O)N1CCO[C@@H](Cc2c(-c3c(F)cc(S(N)(=O)=O)cc3F)nc3cc(Cl)ccn23)C1` [Crystalline form VIII, methyl (S)-2-((7-chloro-2-(2,6-difluoro-4-sulfamoylphenyl)imidazo[1,2-a]pyridin-3-yl)methyl)morpholine-4-carboxylate], the “crystalline form after desolvation by vacuum drying” value in data set [1] (vacuum drying at 40° C. for 3 hours) was “transformed into crystalline form I”. With `COc1ccc2c(c1)[C@]13CCCC[C@@H]1[C@H](C2)N(C)CC3` [Dextromethorphan, dextromethorphan, reference compound], in data set [2] (setting [3]), the “Cough suppression rate vs Vehicle” value is reported as 61.60% and the “Coughing times in 10 min” value was 8.00. Moreover, in data set [2] (guinea pig, in vivo), the “effect on number of coughs compared with the vehicle group, in words” value is recorded as “significantly reduce the number of coughs”.
